From paper PMC11474028, “Lipopeptide antibiotics disrupt interactions of undecaprenyl phosphate with UptA” (Proceedings of the National Academy of Sciences of the …, 2024)
Entries after “also recorded” stand apart in the source; their conditions may differ. Like-named read-outs stand apart in the source and are kept apart here.

Key:
[1] = molecular target: T1, UptA (Bacillus subtilis, UniProt O31823); assay: Native MS competition of C55-P and phospholipids for UptA binding; settings: 4 µM UptA and 10 µM C55-P, increasing DOPG (up to 20 µM) or DOPE
Experimental: To investigate whether or not C55-P can outcompete phospholipids in binding to UptA, we incubated solutions containing UptA-DOPG with increasing concentrations of C55-P. Spectra were recorded after aliquots of the solution were equilibrated on ice for 15 min. […] We therefore hypothesised that phospholipids should be unable to outcompete C55-P bound to UptA. To test this hypothesis, we incubated UptA with C55-P and then equilibrated aliquots with an increasing concentration of DOPG. […]
The chloroform layer containing the total lipids was recovered into a clean glass vial, and the organic solvent was evaporated in a SpeedVac for 16 h. Lipid film was resuspended 200 mM ammonium acetate, 0.05% LDAO (pH 8.0) to ~0.5 mg/mL for the binding experiments.
Sample preparation for native MS
Before measurements, the protein was buffer-exchanged into 0.05% LDAO, 200 mM ammonium acetate (“MS buffer”) at the desired pH using a centrifugal buffer exchange device (Micro Bio -Spin 6, Bio-Rad). Stock solutions of lipids were prepared from chloroform/methanol solution by evaporating aliquots of known volume in a SpeedVac. After drying, the lipid films were weighed and resuspended to a final concentration of 0.5 mM in 200 mM ammonium acetate (pH8) and 0.05% LDAO by vertexing. Stock solutions of 0.5 mM amphomycin, aspartocin D, daptomycin and bacitracin, were made in the same buffer. All experiments were repeated three times from newly prepared stock solutions.
About 3 μL protein aliquot was transferred into a gold-coated borosilicate capillary (Harvard Apparatus) and was mounted on the nano ESI source of a Q-Exactive hybrid quadrupole-Orbitrap mass spectrometer (Thermo Fisher Scientific, Bremen, Germany). The instrument settings were 1.2 kV capillary voltage, S-lens RF 200%, argon UHV pressure 3.3 × 10−10 mbar, the capillary temperature was set to 200 °C, and resolution of the instrument was set to 17,500 at a transie nt time of 64 ms. […] The resulting fragments were detected in the Orbitrap (R = 280,000 @ m/z 200), averaging ~500 transients to maximise the signal-to-noise ratio. […]

[2] = molecular target: T1, UptA; assay: Native MS of phospholipid binding to UptA
Text: Proteins belonging to the DedA family are a widespread family of transporters and are proposed to flip diverse lipids, including carrier lipids and membrane phospholipids. We therefore probed the interaction of UptA with membrane phospholipids to understand whether the latter could modulate its function. For this purpose, we selected anionic phosphatidylglycerols (PG) and zwitterionic phosphatidylethanolamines (PE), representing the major classes of phospholipid headgroups found in B. subtilis ([41], [42]). We recorded mass spectra of solutions containing 4 µM UptA incubated with 10 µM a15:0-i15:0 PE and 10 µM a15:0-i15:0 PG (a15:0, anteiso-pentadecanoic acid; i15:0, iso-pentadecanoic acid). The fatty acid composition of these lipids closely mimics those of native B. subtilis lipids (see below). The resulting spectra display peaks corresponding to UptA in apo and lipid-bound forms in both cases (Fig. 4 A and B). […] We therefore hypothesize that UptA interacts more favorably with PG than with PE.
To verify the lipid binding preference of UptA with more native-like lipids, we prepared lipid extracts from B. subtilis membranes (Materials and Methods). We then incubate an aliquot of the resulting crude lipids (SI Appendix, Fig. S8) with UptA. The spectra yielded peaks assigned to UptA in complex with cardiolipins (~1,326 Da) and a range of phospholipids, predominantly 694 Da, 721 Da, 748 Da, and 776 Da species (Fig. 4 D and E). To identify these lipids, we performed tandem MS/MS, isolating the lipid species and subjecting it to collisional activation. […] The fatty acid fragments are mixed populations, predominantly 15:0-15:0, 15:0-17:0, 16:0-16:0, and 16:0-18:1 (SI Appendix, Fig. S9) which are the typical fatty acids from B. subtilis membrane phospholipids ([42]). We therefore conclude that UptA interacts more favorably with the anionic cardiolipins and phosphatidylglycerols than with the zwitterionic phosphatidylethanolamines in the membrane lipid extracts.
(§1) Detailed experimental procedures are provided in SI Appendix. Briefly, UptA (wild type and mutants) was expressed in E. coli C43(DE3) cells (Lucigen) with GFP fusion on the C-terminus and solubilized from the membrane fraction by n-dodecyl-β-D-maltopyranoside (DDM). After purification by affinity chromatography, the GFP was cleaved by TEV protease and removed, and UptA was further purified by size-exclusion chromatography in a buffer containing 20 mM Tris-HCl (pH 8.0), 200 mM NaCl, 0.02% DDM. Before measurements, proteins were buffer-exchanged into 0.05% LDAO, 200 mM ammonium acetate at the desired pH using a centrifugal buffer exchange device (Micro Bio-Spin 6, Bio-Rad). Stock solutions of lipids were prepared from chloroform/methanol solution by evaporating aliquots of known volume in a SpeedVac. After drying, the lipid films were weighed and resuspended to a final concentration of 0.5 mM in 200 mM ammonium acetate and 0.05% LDAO by vertexing. Stock solutions of 0.5 mM amphomycin, aspartocin D, daptomycin, polymyxin B, polymyxin E, and bacitracin were made in the same buffer. All experiments were repeated three times from newly prepared stock solutions. Native mass spectrometry was performed on a Q-Exactive hybrid quadrupole-Orbitrap mass spectrometer (Thermo Fisher Scientific, Bremen, Germany), and lipid identification was performed on an Orbitrap Eclipse Tribrid mass spectrometer (Thermo). […]
Lipid extracts from B. Subtilis
B. subtilis strain 168 (ATCC 23857) was cultivated in […] LB media at 37 °C until OD600 nm 1.2 under aurobic conditions. Cells were harvested by centrifugation at 4,000 g for 20 minutes and resuspended in 20 mM Tris-HCl (pH 8.0), 150 mM NaCl. Cells were lysed by 5-6 passes through a microfluidizer at 20,000 psi. The lysates were clarified by centrifugation at 4,000 g for 10 minutes, and the totoal membrane was pelleted at 120,000 g for 1 h. The membrane pellet was ressupended […]

[3] = molecular target: MurG; settings: read-out: Kd, MurG/lipid I; cited from earlier work
Experimental: (§2) We explored the binding affinity of UptA toward C55-P by recording mass spectra for solutions containing 2.5 µM UptA and 0 to 40 µM C55-P in 200 mM ammonium acetate, 0.05% LDAO at pH 8.0. […] Further increase in the concentration of C55-P enhanced the intensity of the UptA:C55-P complex, together with the emergence of additional binding events (Fig. 2A). We deconvoluted the spectra ([34]) to extra ...

[4] = tested on: UptA:C55-P complex; assay: Native MS of UptA:C55-P complex in the presence of antibiotics; format: binding, Bacillus subtilis; settings: 2.5 µM UptA, 10 µM C55-P, 0 to 100 µM antibiotic, 75 V; mean of three independent replicates
Experimental: (§3) Amphomycin and derivatives are known to kill bacteria by forming complexes with free C55-P ([46]), however, whether or not this involves a direct interaction with a protein cellular target is not known. We therefore investigated how amphomycin affects the UptA:C55-P complex. We recorded spectra for solutions containing 2.5 µM UptA, 10 µM C55-P and then equilibrated aliquots with increasing concentrations of amphomycin.
(A) Mass spectra (6+ charge state) for solutions containing 2.5 µM UptA and 10 µM C55-P incubated with 0 to 100 µM amphomycin. (B) Relative intensity of C55-P bound to UptA in the presence of amphomycin and daptomycin. The bar represents the mean of three independent replicates shown as data points and error bars are SD. […] (C) Fraction of C55-P bound to UptA in the presence of cell wall targeting antibiotics. Each sample contains 2.5 µM UptA, 10 µM C55-P and 100 µM of indicated antibiotic, and spectra were acquired using the same instrument settings and collisional activation of 75 V. The bar represents the mean of three independent replicates shown as data points, and the error bar represents SD. […]
as §1

[5] = cited from earlier work
Text: To this end, we prepared UptA:C55-P mixtures and then equilibrated aliquots with bacitracin and vancomycin. […] Despite the combined cellular pool of C55-PP and C55-P being limited to ~1.5 × 10^5 molecules per cell ([56]), they mediate the transport of glycan-bearing components of the cell wall peptidoglycan, teichoic acid, and capsular polysaccharid ...

[6] = molecular target: T1, UptA; assay: Native MS of antibiotic binding to UptA; settings: 2.5 µM UptA, 10 µM C55-P, antibiotic up to 100 µM (polymyxins 100 µM), 0.05% LDAO, 200 mM ammonium acetate, 75 V
Experimental: We next investigate how UptA and its complex with C55-P interact with a range of cell-wall targeting antibiotics including the lipopeptides daptomycin and amphomycin. […] We investigated whether daptomycin affects C55-P binding to UptA by recording spectra for solutions containing 2.5 µM UptA, 10 µM C55-P, and different concentrations of daptomycin.
as §3
The amphiphilic nature of daptomycin and amphomycin raises the possibility that these lipopeptide antibiotics may promiscuously bind to UptA in a nonspecific manner. We probe this possibility by recording spectra for UptA:C55-P solutions in the presence of 100 µM polymyxin B and 100 µM polymyxin E. These polymyxins are membrane-disrupting lipopeptides that target the outer membrane lipopolysaccharides in Gram-negative bacteria ([47]) but without a known affinity for C55-P or UptA.
To this end, we prepared UptA:C55-P mixtures and then equilibrated aliquots with bacitracin and vancomycin.
as §1

[7] = daptomycin ref 45; vancomycin ref 49, 50; cited from earlier work
[8] = molecular target: MurJ; settings: read-out: Kd, MurJ/lipid II; cited from earlier work
Experimental: as §2

[9] = molecular target: the molecule itself; assay: native MS; UptA 2.2 µM (E32A 2.5 µM, with 10 µM C55-P) in 200 mM ammonium acetate pH 8.0, 0.05% LDAO; dimer 9+ charge state isolated and dissociated into protomers by HCD (190 V); more dimer at pH 8.0 than at pH 5.0

CCCCCCCC/C=C\CCCCCCCC(=O)OC[C@H](COP(=O)(O)OCCN)OC(=O)CCCCCCC/C=C\CCCCCCCC [18:1-18:1 PE]
displacement of C55-P from UptA by phospholipid (in words) [1]: could not efficiently displace C55-P from UptA

CCCCCCCC/C=C\CCCCCCCC(=O)OC[C@H](COP(=O)(O)OCC(O)CO)OC(=O)CCCCCCC/C=C\CCCCCCCC (stereo partly drawn) [18:1-18:1 PG]
displacement of C55-P from UptA by phospholipid (in words) [1]: C55-P remains bound to UptA even in the presence of excess DOPG (20 µM)
mean relative intensity of UptA in complex with phospholipid, comparison (in words) ([2]; 4 µM UptA with 10 µM lipid (stated for a15:0-i15:0 lipids), mean of three independent replicates): bind to UptA more intensely than 16:0-18:1 PE and 18:1-18:1 PE, respectively
UptA-lipid complexes formed (stoichiometry, in words) ([2]; 4 µM UptA with 10 µM lipid, native MS): binding of 1 to 2 molecules of DOPG per UptA

CC(=O)N[C@H]1[C@@H](OP(=O)(O)OP(=O)(O)OC/C=C(/C)CC/C=C(/C)CC/C=C(/C)CC/C=C(/C)CC/C=C(/C)CC/C=C(/C)CC/C=C(/C)CC/C=C(\C)CC/C=C(\C)CC/C=C(\C)CCC=C(C)C)O[C@H](CO)[C@@H](O)[C@@H]1O[C@H](C)C(=O)N[C@@H](C)C(=O)N[C@H](CCC(=O)N[C@@H](CCCCN)C(=O)N[C@H](C)C(=O)N[C@H](C)C(=O)O)C(=O)O [lipid I]
Kd [3]: 1.89 ± 0.6 µM

bacitracin
effect of antibiotic on UptA:C55-P complex (in words) [4]: modestly competes against C55-P binding to UptA
complex formation with or sequestration of C55-PP (in words) [5]: form complex with C55-PP
complex formation with or sequestration of C55-PP (in words) ([5]; listed as Bacitracin): sequestration of C55-PP
binding of antibiotic to UptA (in words) [6]: bind to UptA but with very low intensities

daptomycin
effect of antibiotic on UptA:C55-P complex (in words) [4]: does not directly compete against C55-P binding to the protein; also recorded: modest impact
complex formation with or sequestration of lipid II (in words) [7]: complexing with lipid II
binding of antibiotic to UptA (in words) [6]: daptomycin interacts with UptA

lipid II
Kd [8]: 2.9 ± 0.6 µM

teixobactin
complex formation with or sequestration of C55-PP (in words) [5]: form complex with C55-PP

B1: UptA (undecaprenyl phosphate transporter A), Bacillus subtilis, wild type (natural protein, UniProt O31823 1-198, looked up)
chain: MGSLISEILTWLTNMGYAGIAIGLMIEIIPSEIVLAYGGYMVSEGTIGFIGAIIAGVIGGTIAQIFIYWIGRYGGRPFLDKYGKYLLIKKHHIDMSENWFQKYGAGVVFSARFIPVVRHAISIPAGIARMPFLKFVVLTVLAIIPWSILFVYLGIQLGSQWDDVENIAGTYTTPIMILAVVVIALYFVIKKRTAIFKR
modifications: formylation of the N-terminal methionine
notes: UptA, DedA family membrane protein of Bacillus subtilis; detailed procedures are in SI Appendix; In equilibrium of monomers and dimers; also called WT; not shown: GFP, C-terminal, cleaved
stoichiometry N [9]: 2
